Assay results: patent US20260191849A1, “PHARMACEUTICAL COMPOSITION FOR TREATMENT OF CANCER” (WIGEN BIOMEDICINE TECHNOLOGY (SHANGHAI) CO., LTD., priority 2022, published 2026)
Where two headings read alike, the source gives them in different places.

Experiments:
Type in all cases: cell-based
SK-OV-3 cells = test: Combined use of compound 257 or AMG650 with PLK1 inhibitor on SK-OV-3 cell viability, 168 h (Biological Example 21); details: for IC50: Homo sapiens, SK-OV-3, 168 h
Experimental: SK—OV-3 cells were seeded on a 384-well plate at 3000 cells/well. After overnight adherence culture, DMSO or compound 257 or AMG650 serially diluted in a 1:5 ratio from 400 nM and a PLK1 inhibitor with a specified concentration were added. The cell viability was assessed 168 h after dosing by measuring the intracellular ATP content. […] Furthermore, interactions between the drugs were also analyzed using the BLISS independence model, and the results are shown in FIG. 11 and FIG. 12.

HCT116 cells [1] = test: In vitro anti-proliferative activity against HCT116 cells (Biological Example 2); details: in words, from Table 4
Experimental: HCT116 cells were seeded on a 384-well plate at 3000 cells/well. After overnight adherence culture, DMSO or the compounds serially diluted in a 1:5 ratio from 5 μM were added. The cell viability was assessed 72 h after dosing by measuring the intracellular ATP content. The inhibition percentages of viable cells by the compounds were calculated by comparing with the DMSO group, and the IC50 values were also calculated.

HT29 cells [2] = test: Combined use of compound 257, AMG650 or Compound A with PLK1 inhibitor on HT29 cell viability, 168 h (Biological Example 19); details: for IC50: Homo sapiens, HT-29, 168 h, HT29 cells, read-out: IC50
Experimental: HT29 cells were seeded on a 384-well plate at 3000 cells/well.

HCT116 cells [3] = test: Combined use of compound 257, AMG650 or Compound A with PLK1 inhibitor on HCT116 cell viability, 168 h (Biological Example 20)
Experimental: HCT116 cells were seeded on a 384-well plate at 3000 cells/well. After overnight adherence culture, DMSO or compound 257, AMG650, or Compound A serially diluted in a 1:5 ratio from 400 nM and a PLK1 inhibitor with a specified concentration were added. The cell viability was assessed 168 h after dosing by measuring the intracellular ATP content. The inhibition percentages of viable cells by the compounds were calculated by comparing with the DMSO group, and the IC50 values were also calculated.

HT29 cells [4] = test: Combined use of compound 257 or AMG650 with PLK1 inhibitor (Volasertib) on HT29 cell viability, 168 h (Biological Example 22); details: for IC50: Homo sapiens, HT-29, 168 h
Experimental: HT29 cells were seeded on a 384-well plate at 3000 cells/well. After overnight adherence culture, DMSO or compound 257 or AMG650 serially diluted in a 1:5 ratio from 400 nM and a PLK1 inhibitor with a specified concentration were added. The cell viability was assessed 168 h after dosing by measuring the intracellular ATP content. […] Furthermore, interactions between the drugs were also analyzed using the BLISS independence model, and the results are shown in FIG. 15 and FIG. 16.

HCT116 cells [5] = test: Combined use of compound 257 or AMG650 with PLK1 inhibitor on HCT116 cell viability, 168 h (Biological Example 8)
Experimental: HCT116 cells were seeded on a 384-well plate at 3000 cells/well. After overnight adherence culture, DMSO or compound 257 or AMG650 serially diluted in a 1:5 ratio from 10 μM and a PLK1 inhibitor with a specified concentration were added. The cell viability was assessed 168 h after dosing by measuring the intracellular ATP content. The inhibition percentages of viable cells by the compounds were calculated by comparing with the DMSO group, and the IC50 values were also calculated.

HT29 cells [6] = test: Combined use of compound 257 or AMG650 with PLK1 inhibitor on HT29 cell viability, 168 h (Biological Example 7); details: for Maximum inhibition rate / Minimum inhibition rate / IC50: HT29 cells; for IC50: Homo sapiens, HT-29, 168 h
Experimental: HT29 cells were seeded on a 384-well plate at 3000 cells/well. After overnight adherence culture, DMSO or compound 257 or AMG650 serially diluted in a 1:5 ratio from 400 nM and a PLK1 inhibitor with a specified concentration were added. The cell viability was assessed 168 h after dosing by measuring the intracellular ATP content. The inhibition percentages of viable cells by the compounds were calculated by comparing with the DMSO group, and the IC50 values were also calculated.

Compound: Cc1cc(NC(=O)c2ccc(NS(=O)(=O)CCO)cc2N2CCC3(CC2)CC3)nc(N2CCC(F)(F)CC2)n1 [AMG650]
- inhibitory effect on SK-OV-3 cells, combined use with the PLK1 inhibitor compared with monotherapy (SK-OV-3 cells; 168 h, Volasertib, in words): stronger inhibitory effect
- IC50 (SK-OV-3 cells): 66 nM
- IC50 (SK-OV-3 cells; SK-OV-3 cells, 168 h, Volasertib 0.0001 nM, read-out: IC50): 72.2 nM
- IC50 (SK-OV-3 cells; SK-OV-3 cells, 168 h, Volasertib 6.25 nM, read-out: IC50): 51.7 nM
- IC50 (SK-OV-3 cells; SK-OV-3 cells, 168 h, Volasertib 12.5 nM, read-out: IC50): 34.5 nM
- IC50 (SK-OV-3 cells; SK-OV-3 cells, 168 h, Volasertib 25 nM, read-out: IC50): 27.1 nM
- IC50 (SK-OV-3 cells; SK-OV-3 cells, 168 h, Volasertib 50 nM, read-out: IC50): 11.2 nM
- anti-proliferative activity against HCT116 cells (HCT116 cells [1]): neither the compounds of the present disclosure nor AMG65 exhibited anti-proliferative activity
- inhibitory effect on HT-29 cells, combined use with the PLK1 inhibitor compared with monotherapy (HT29 cells [2]; CYC140 or TAK-960, in words): stronger inhibitory effect
- IC50 (HT29 cells [2]; CYC140 (Plogosertib) 0.0001 nM): 91.8 nM
- IC50 (HT29 cells [2]; CYC140 (Plogosertib) 1.6 nM): 74.4 nM
- IC50 (HT29 cells [2]; CYC140 (Plogosertib) 8 nM): 50.6 nM
- IC50 (HT29 cells [2]; CYC140 (Plogosertib) 40 nM): 11.1 nM
- IC50 (HT29 cells [2]; TAK-960 0.0001 nM): 88.9 nM
- IC50 (HT29 cells [2]; TAK-960 1.6 nM): 58.6 nM
- IC50 (HT29 cells [2]; TAK-960 8 nM): 16.5 nM
- IC50 (HT29 cells [2]; TAK-960 40 nM): 16.1 nM
- synergistic effect on HCT116 cell viability, combined use with the PLK1 inhibitor (HCT116 cells [3]; CYC140 or TAK-960, in words): no significant synergistic effect
- IC50 (HCT116 cells [3]; HCT116 cells, CYC140 (Plogosertib) 1.6 nM): > 400 nM
- IC50 (HCT116 cells [3]; HCT116 cells, CYC140 (Plogosertib) 8 nM): > 400 nM
- IC50 (HCT116 cells [3]; HCT116 cells, CYC140 (Plogosertib) 40 nM): > 400 nM
- IC50 (HCT116 cells [3]; HCT116 cells, TAK-960 0 nM): > 400 nM
- IC50 (HCT116 cells [3]; HCT116 cells, TAK-960 1.6 nM): > 400 nM
- IC50 (HCT116 cells [3]; HCT116 cells, TAK-960 8 nM): > 400 nM
- IC50 (HCT116 cells [3]; HCT116 cells, TAK-960 40 nM): > 400 nM
- IC50 (HCT116 cells [3]; Homo sapiens, HCT-116, HCT116 cells, CYC140 (Plogosertib) 0 nM): > 400 nM
- anti-proliferative activity against HCT116 cells, monotherapy (HCT116 cells [3]; in words): did not exhibit anti-proliferative activity
- inhibitory effect on HT-29 cells, combined use with the PLK1 inhibitor compared with monotherapy (HT29 cells [4]; 168 h, Volasertib, in words): stronger inhibitory effect
- IC50 (HT29 cells [4]): 30.2 nM
- IC50 (HT29 cells [4]; HT29 cells, 168 h, Volasertib 0.0001 nM, read-out: IC50): 79.9 nM
- IC50 (HT29 cells [4]; HT29 cells, 168 h, Volasertib 3.13 nM, read-out: IC50): 43 nM
- IC50 (HT29 cells [4]; HT29 cells, 168 h, Volasertib 12.5 nM, read-out: IC50): 14.2 nM
- IC50 (HT29 cells [4]; HT29 cells, 168 h, Volasertib 25 nM, read-out: IC50): 5.9 nM
- IC50 (HCT116 cells [5]; HCT116 cells, Volasertib 3.12 nM): > 10000 nM
- IC50 (HCT116 cells [5]; HCT116 cells, Volasertib 6.25 nM): > 10000 nM
- IC50 (HCT116 cells [5]; Homo sapiens, HCT-116, HCT116 cells, Volasertib 0 nM): > 10000 nM
- synergistic effect on HCT116 cell viability, combined use with the PLK1 inhibitor (HCT116 cells [5]; Volasertib, in words): no significant synergistic effect
- anti-proliferative activity against HCT116 cells, monotherapy (HCT116 cells [5]; in words): did not exhibit anti-proliferative activity
- Maximum inhibition rate (HT29 cells [6]; Volasertib 0 nM): 96.5%
- Minimum inhibition rate (HT29 cells [6]; Volasertib 0 nM): −1.4%
- Maximum inhibition rate (HT29 cells [6]; Volasertib 3.12 nM): 95.8%
- Minimum inhibition rate (HT29 cells [6]; Volasertib 3.12 nM): 3.3%
- Maximum inhibition rate (HT29 cells [6]; Volasertib 6.25 nM): 97.0%
- Minimum inhibition rate (HT29 cells [6]; Volasertib 6.25 nM): −0.4%
- IC50 (HT29 cells [6]; Volasertib 0 nM): 84.4 nM
- IC50 (HT29 cells [6]; Volasertib 3.12 nM): 26.6 nM
- IC50 (HT29 cells [6]; Volasertib 6.25 nM): 16.4 nM
- inhibitory effect on HT-29 cells, combined use with the PLK1 inhibitor compared with monotherapy (HT29 cells [6]; Volasertib, in words): stronger inhibitory effect
